Consider 5 molecules from patent publication US20100197625A1, “SYNTHETIC LIPOPHILIC INOSITOL GLYCANS FOR TREATMENT OF CANCER AND GLUCOSE-METABOLISM DISORDERS” (priority 2006, published 2010).

Molecules are shown by their SMILES.

Data set [1] deals with human umbilical vein endothelial cells (HUVEC). Description: Cell death of human umbilical vein endothelial cells. Conditions: in 1 hour, with IG-1. The data set is classed as cell-based.
In a further data set the test system is Panc-1 cells. Description: Cell proliferation / cell death assay, Panc-1. The data set is classed as cell-based, human. Conditions: Panc-1, after 3 days (72 hours). As for the experimental part:
(§1) Human pancreatic cancer cell lines (Panc-1, MiaPaca2, BXPC3, Aspc 1), human hepatoma cell line (HuH7), human gastric cancer cell lines (AGS, MKN45), human colon cancer cell line (CoCM-1), human mammary cancer cell line (MCF-7), human neuroblastoma (SH-SY5Y), human prostate cancer cells (PC3), and murine Ehrlich ascites cancer cells and mouse 3T3-L1 fibroblasts were obtained from American Type Culture Collection (Rockville, Md., USA). The cancer cells were cultured in RPMI 1640 containing 10% fetal calf serum. Cultures were maintained at 37° C. in a humidified atmosphere of 5% CO2.
(§2) Cell proliferation assays were performed with the CellTiter 96 AQueous One Solution Cell Proliferation Assay kit according to the manufacturer's instructions (Promega, Madison, Wis., USA). Briefly, 5×10^3 cells/well in medium were placed onto 96-well plates. IGs were added to cellular cultures at final concentrations of 0, 1, 10, and 100 μM. […] of CellTiter 96 AQueous One Solution Reagent, which contains a tetrazolium compound, 3-(4,5-dimethylthiazol-2-yl)-5-(3-carboxymethoxyphenyl)-2-(4-sulfophenyl)-2H-tetrazolium, an inner salt; MTS was added to the culture medium. After incubating the plate for 1 h in a CO2 incubator, absorbance at 490 nm was recorded with a 96-well plate reader.

For data set [2], the system named is human normal cultured cells. Description: Proliferation of human normal cultured cells. The data set is classed as cell-based. Conditions: 1-100 μM, data not shown. The procedure: Human primary culture cells, dermal fibroblasts, epidermal keratinocytes and umbilical vein endothelial cells were purchased from Cell Applications (San Diego, Calif., USA) and cultured according to the manufacturer's instructions.
Cell proliferation assays were performed with the CellTiter 96 AQueous One Solution Cell Proliferation Assay kit according to the manufacturer's instructions (Promega, Madison, Wis., USA). Briefly, 5×10^3 cells/well in medium were placed onto 96-well plates. IGs were added to cellular cultures at final concentrations of 0, 1, 10, and 100 μM. Cultures were incubated for 3 days or 7 days and then added to 20 μL/well of CellTiter 96 AQueous One Solution Reagent, which contains a tetrazolium compound, 3-(4,5-dimethylthiazol-2-yl)-5-(3-carboxymethoxyphenyl)-2-(4-sulfophenyl)-2H-tetrazolium, an inner salt; MTS was added to the culture medium. After incubating the plate for 1 h in a CO2 incubator, absorbance at 490 nm was recorded with a 96-well plate reader.

A further data set concerns native rat adipocytes. As to the kind of experiment: Lipogenesis in native rat adipocytes. The data set is classed as cell-based. As for the experimental part:
Adipocytes were isolated from epididymal fat pads dissected from freshly sacrificed male Long-Evans rats and incorporation of [6-^3H]-glucose into triglycerides in response to treatment with inositol glycans or insulin was measured as previously described (Chakraborty, N. and M. d'Alarcao, Bioorganic & Medicinal Chemistry 13 (2005) 6732-6741).

Data set [3] deals with 3T3-L1 adipocytes. As to the kind of experiment: Glycogen synthesis in 3T3-L1 adipocytes. Conditions: 100 μM. The format is cell-based, mouse. The procedure:
(§3) 3T3-L1 fibroblasts were maintained in Dulbecco's modified Eagle's medium (DMEM) with 25 mM glucose plus 10% fetal bovine serum (FBS). Following 2 days at confluence, differentiation was initiated by the addition of DMEM containing 10% FBS, 167 nM insulin, […] dexamethasone, and 0.5 mM isobutylmethylxanthine. Three days later, the medium was replaced with DMEM plus 10% FBS and 167 nM insulin. After 2 more days, the medium was switched to DMEM plus 10% fetal bovine serum. Adipocytes were used 6-14 days after completion of the differentiation protocol, when >90% of the cells expressed the adipocyte phenotype. Prior to experiments, cells were washed two times with DMEM medium containing 5 mM glucose, 0.2% bovine serum albumin, 25 mM Hepes (pH 7.4), 100 units/ml penicillin, 100 units/ml streptomycin and 0.29 mg/ml glutamine, and were incubated in the same medium for 2 h. Glycogen and lipid synthesis were measured in 24-well dishes. […] The lipids were then extracted overnight with 5 ml of Betafluor (National Diagnostics), and glucose incorporation into lipid was measured by scintillation counting. 400 μl of the cell suspension was added to 600 μl of 50% KOH, and glycogen was precipitated and radioactivity was counted by a liquid scintillation counter

Data set [4] concerns 3T3-L1 adipocytes. As to the kind of experiment: Lipogenesis in 3T3-L1 adipocytes. Conditions: 100 μM. The format is cell-based, mouse. As for the experimental part:
as §3

The test system of another data set is human hepatoma (HuH7). As to the kind of experiment: Cell proliferation / cell death assay, HuH7. The data set is classed as cell-based. Conditions: HuH7, in 24 hours after treatment. As for the experimental part:
as §1, §2

For data set [5], the system named is human neuroblastoma (SH-SY5Y). Description: Cell proliferation / cell death assay, SH-SY5Y. The data set is classed as cell-based. Conditions: in 24 hours after treatment. The procedure:
as §1, §2

In data set [6] the test system is human prostate cancer cells (PC3). Description: Cell proliferation / cell death assay, PC3. The format is cell-based. Conditions: PC3, in 24 hours after treatment. The procedure: as §1, §2

Turning to `CCCCC/C=C\C/C=C\C/C=C\C/C=C\CCCC(=O)O[C@H](COCCCCCCCCCCCCCCCCCC)COP(=O)(O)O` [AAPA2, 1-0-alkyl (18:0)-2-0-acyl-(20:4)-sn-glycerol-phosphate], the “effect on rapid cell death of HUVEC induced by IG-1” value in [1] is recorded as “inhibits this rapid cell death”.

Regarding `CCCCCCCCCCCCCCCC(=O)OC1[C@H](O)C(O)C(O)[C@H](O)[C@@H]1O[C@H]1OC(CO)[C@@H](O)[C@H](O)C1N` (stereo partly drawn) [IG13, 2-Amino-2-deoxy-α-D-glucopyranosyl-(1→6)-1-palmitoyl-D-myo-inositol], the cell death result in the data set with Panc-1 cells was “induced cancer cell death”. Moreover, in data set [2], the “proliferation of human normal cultured cells” value (from here on “proliferation”) was “did not affect the proliferation”. The stimulation of lipogenesis result in the data set with native rat adipocytes (native rat adipocytes, 40 μM) is reported as “little or no lipogenesis”.

Turning to `CCCCCCCCCCCCCCCC(=O)O[C@H]1[C@@H](O)[C@H](O)[C@@H](O)[C@H](O)[C@H]1O[C@H]1O[C@H](CO)[C@@H](O)[C@H](O)[C@H]1N` [IG14, 2-Amino-2-deoxy-α-D-glucopyranosyl-(1→3)-2-palmitoyl-D-myo-inositol], the cell death entry in the data set with Panc-1 cells was “induced cancer cell death”. The “proliferation” value in data set [2] is “did not affect the proliferation”. In the data set on native rat adipocytes (native rat adipocytes, 40 μM), the stimulation of lipogenesis entry is recorded as “little or no lipogenesis”.

With `CCCCCCCCCCCCCCCC(=O)O[C@@H]1C(O)C(O[C@H]2OC(CO)[C@@H](O)[C@H](O)C2N)[C@@H](O)[C@@H](O)C1O` (stereo partly drawn) [IG15, 2-Amino-2-deoxy-α-D-glucopyranosyl-(1→3)-1-palmitoyl-D-myo-inositol], in the data set on Panc-1 cells, the cell death result is on record as “induced cancer cell death”. The “proliferation” value in data set [2] is recorded as “did not affect the proliferation”. Also, the glycogen synthesis result in the data set on 3T3-L1 adipocytes [3] is given as “stimulates”. Besides, the lipogenesis entry in the data set on 3T3-L1 adipocytes [4] is recorded as “stimulates”. The stimulation of lipogenesis result with native rat adipocytes (native rat adipocytes, 40 μM) is on record as “little or no lipogenesis”.

In general, EC50 refers to the midpoint of the concentration-response curve. Regarding `CCCCCCCCCCCCCCCC(=O)O[C@@H]1C(O)C(O)[C@H](O)[C@H](O[C@H]2OC(CO)[C@@H](O)[C@H](O)C2N)C1OP(=O)(O)O` (stereo partly drawn) [IG2, 2-Amino-2-deoxy-α-D-glucopyranosyl-(1→6)-2-palmitoyl-D-myo-inositol-1-phosphate], the cancer cell death result (in the data set with human hepatoma (HuH7); in data set [5]; in data set [6]) was “induced cancer cell death” each time. Further, the “proliferation” value in data set [2] is “no effect on the proliferation”. Further, the EC50 in the data set with native rat adipocytes (Adipocyte, rat isolated adipocytes, fit to receptor binding model, read-out: EC50 value for stimulation of lipogenesis) is 2500 nM. For the same molecule, the Emax in the data set with native rat adipocytes (Adipocyte, rat isolated adipocytes, stimulation of lipogenesis, read-out: Amax (maximal effect)) was 37%. Further, the stimulation of lipogenesis entry in the data set on native rat adipocytes (rat isolated adipocytes, concentration series) was “stimulated lipogenesis”.
